Source: EP0777471B1, “INHIBITION OF LEUKOTRIENE BIOSYNTHESIS WITH UREA DERIVATIVES” (MINNESOTA MINING AND MANUFACTURING COMPANY, priority 1994, dated 1996)
Values joined by “and” are separate entries in the source; they are usually repeats but may differ in a detail not shown here. Equal values may be shown once.

Legend:
[1] = test system: production of Leukotriene B4; test: Rat ex vivo Leukotriene B4 inhibition (oral dosing, blood challenged with A23187); assay type: in vivo, Rats; settings: two hours post dose
How it was run: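 Male CD rats (250 g, non-fasted) dosed orally with compound in PEG 400, 5 rats/group; blood drawn by cardiac puncture before and 2 h after dosing. Heparinized blood challenged with A23187 calcium ionophore, 30 min at 37°C; plasma LTB4 measured by radioimmunoassay. % inhibition = post-dose vs pre-dose LTB4 level.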

[2] = test system: production of Leukotriene C4 in mouse peritoneal macrophages; test: In vitro mouse peritoneal macrophage Leukotriene C4 inhibition (zymosan-stimulated, LTC4 radioimmunoassay); assay type: cell-based; settings: Zymosan 50 µg/mL
How it was run: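 Adherent peritoneal macrophages from female CD-1 mice were preincubated 15 minutes at 37°C with compound (10, 1 and 0.1 µM, duplicate; DMSO). They were then stimulated with 50 µg/mL zymosan for 1 to 2 hours. Leukotriene C4 released into the medium was measured by radioimmunoassay.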

Compound	%I ([1]; 5 mg/Kg)	%I ([1]; 50 mg/Kg)	IC50 [2]	%I ([1]; 25 mg/Kg)	%I ([1]; 10 mg/Kg)	%I ([1]; 20 mg/Kg)
CSc1ccc(NC(=O)N(C)O)cc1 [Compound 1, 1-Hydroxy-1-methyl-3-[4-(methylthio)phenyl]urea]	18%	87%	< 1000 nM	–	–	–
COc1cccc(NC(=O)N(C)O)c1 [Compound 5, 1-hydroxy-3-(3-methoxyphenyl)-1-methylurea]	–	82%	200 nM	–	–	–
CN(O)C(=O)Nc1cccc(Br)c1 [Compound 6, 3-(3-bromophenyl)-1-hydroxy-1-methylurea]	39%	47%	< 100 nM	–	–	–
Cc1cccc(NC(=O)N(C)O)c1 [Compound 7, 1-hydroxy-1-methyl-3-(3-methylphenyl)urea]	32%	–	< 1000 nM	–	–	–
CN(O)C(=O)Nc1cccc(F)c1 [Compound 8, 3-(3-fluorophenyl)-1-hydroxy-1-methylurea]	29%	–	400 nM	–	–	–
CN(O)C(=O)Nc1cccc([N+](=O)[O-])c1 [Compound 9, 1-hydroxy-1-methyl-3-(3-nitrophenyl)urea]	–	–	700 nM	34%	–	–
CN(O)C(=O)Nc1ccccc1 [Compound 10, 1-hydroxy-1-methyl-3-phenylurea]	–	41%	< 1000 nM	23%	–	–
CSc1cccc(NC(=O)N(O)C(C)C)c1 [Compound 16, 1-hydroxy-1-(1-methylethyl)-3-[3-(methylthio)phenyl]urea]	–	–	< 1000 nM	74%	–	–
CC(C)N(O)C(=O)Nc1ccccc1 [Compound 17, 1-hydroxy-1-(1-methylethyl)-3-phenylurea]	–	26%	600 nM	–	–	–
CC(C)N(O)C(=O)Nc1ccc(F)cc1 [Compound 18, 3-(4-fluorophenyl)-1-hydroxy-1-(1-methylethyl)urea]	–	3%	800 nM	–	–	–
CC(C)N(O)C(=O)Nc1ccc(Br)cc1 [Compound 19, 3-(4-bromophenyl)-1-hydroxy-1-(1-methylethyl)urea]	–	3%	< 1000 nM	–	–	–
CC(C)N(O)C(=O)Nc1ccccc1F [Compound 20, 3-(2-fluorophenyl)-1-hydroxy-1-(1-methylethyl)urea]	–	19%	200 nM	–	–	–
Cc1cccc(NC(=O)N(O)C(C)C)c1 [Compound 21, 1-hydroxy-1-(1-methylethyl)-3-(3-methylphenyl)urea]	–	–	100 nM	–	–	–
COc1ccc(NC(=O)N(O)C(C)C)cc1 [Compound 23, 1-hydroxy-3-(4-methoxyphenyl)-1-(1-methylethyl)urea]	–	45%	200 nM	–	–	–
CC(C)N(O)C(=O)Nc1ccccc1Cl [Compound 24, 3-(2-chlorophenyl)-1-hydroxy-1-(1-methylethyl)urea]	–	29%	200 nM	–	–	–
Cc1ccccc1NC(=O)N(O)C(C)C [Compound 25, 1-hydroxy-1-(1-methylethyl)-3-(2-methylphenyl)urea]	–	45% and 79%	600 nM	44%	13%	–
CC(C)CCN(O)C(=O)Nc1ccccc1 [Compound 44, 1-hydroxy-1-(3-methylbutyl)-3-phenylurea]	–	18%	< 1000 nM	–	–	–
CC(C)CN(O)C(=O)Nc1ccccc1 [Compound 54, 1-Hydroxy-1-(2-methylpropyl)-3-phenylurea]	–	42%	1300 nM	–	–	–
CN(O)C(=O)Nc1cccc(S(C)(=O)=O)c1 [Compound 59, 1-Hydroxy-1-methyl-3-[3-(methylsulfonyl)phenyl]urea]	9%	65% and 87%	300 nM	49%	23%	20%
